# According to paper PMC7162838, “Production of multiple bacteriocins, including the novel bacteriocin gassericin M, by Lactobacillus gasseri LM19, a strain isolated from human milk” (Applied Microbiology and Biotechnology, 2020):
# Where two headings read alike, the source gives them in different places.
# Tested on: L. bulgaricus DPC6901
# Experiment: Well-diffusion assay of naturally produced and synthetic peptides
# Assay type: cell-based, Lactobacillus delbrueckii subsp. bulgaricus
# Details: for antimicrobial activity of synthetic peptides: synthetic peptides resuspended in milli Q water at 1 mg/ml
# [1] = fractions from HPLC fractionation I and II of L. gasseri LM19 cell extracts and supernatant, well-diffusion, Fig. 4a
Sequence,antimicrobial activity of HPLC fractions containing the peptide mass [1],"antimicrobial activity of synthetic peptides (well-diffusion, Fig. 4a)",antimicrobial activity of HPLC fractions containing the peptide mass
"MALKTLEKHELRNVMGGNKWGNAVIGAATGATRGVSWCRGFGPWGMTACGLGGAAIGGYLGYKSN [GamX, class IIb bacteriocin peptide of L. gasseri LM19 cluster 3, purified from culture and synthesised]",low activity,–,–
"MKVLNECQLQTVVGGKNWSVAKCGGTIGTNIAIGAWRGARAGSFFGQPVSVGAGALIGASAGAIGGSVQCVGWLAGGGR [Bact_1, bacteriocin peptide of L. gasseri LM19 cluster 1, identical to gassericin S peptide GasA]",–,lower than that from fractions containing the Bact_1 mass,–
"MKTLNEQELTQIVGGKGNKGINWANVRCASAVTIGALGGGLAGPGGMVGGFLLGSGACF [GamY, peptide of the novel two-component bacteriocin gassericin M]",–,did not show activity,clear activity
"MIEKVSKNELSRIYGGNNVNWGSVAGSCGKGAVMGIYFGNPILGCANGAATSLVLQTASGIYKNYQKKR [Bact_2, bacteriocin peptide of L. gasseri LM19 cluster 1, identical to gassericin S peptide GasX]",–,highest activity,largest zones of inhibition
"MKNFNTLSFETLANIVGGRNNWAANIGGVGGATVAGWALGNAVCGPACGFVGAHYVPIAWAGVTAATGGFGKIRK [GamA, class IIb bacteriocin peptide of L. gasseri LM19 cluster 3, purified from culture and synthesised]",largest zones of inhibition,highest activity,–
"MRKINKEELVEITGGFNAAKCAVGTAGGAFSIARGSAAFGVPGMVIGGILGGAAGALASCK [GamM, peptide of the novel two-component bacteriocin gassericin M]",–,notable,low activity
